Results from patent US6136852A, “3,4-disubstituted phenylethanolaminotetralincarboxylic acid derivatives” (Kissei Pharmaceutical Co., Ltd., priority 1996, dated 2000).

Experiments:
β1 -adrenergic receptor = assay: Action of drugs on the atrial contractions of isolated rat atrium (β1-adrenergic receptor stimulating activity); format: cell-based; settings: isolated SD male rat atrium, Magnus method
Description: Thus, the compounds of the present invention have markedly weak β1 -adrenergic receptor stimulating effect in comparison with the aforementioned β2 -adrenergic receptor stimulating effect.
Action of Drugs on the Atrial Contractions of Isolated Atrium
The atria of SD male rats (350 to 400 g in body weight) were isolated and the experiment was conducted according to the Magnus method. The sample with a tension of 1 g was exposed to Krebs-Henseleit solution maintained at 37° C. and gassed with a mixture of 95% of oxygen and 5% of carbon dioxide. The atrial contraction was induced isometrically via a pressure transducer and recorded on a rectigram. After addition of the drug, its efficacy was evaluated as drug concentration that increased 20 beats per minute of heart rate (i.e., EC20 value).

β2 -adrenergic receptor = molecular target: T1, β2 -adrenergic receptor (Rattus norvegicus, UniProt P10608); assay: Action of drugs on the spontaneous contractions of isolated pregnant rat myometrium (β2-adrenergic receptor stimulating activity); format: cell-based; settings: isolated pregnant SD rat uterus (pregnancy day 21), Magnus method; read-out: EC50 value (activity to relax 50% of the spontaneous contractions of rat myometrium)
T1 construct: The uteri of pregnant SD rats (pregnancy day 21) were isolated; from tissue; host or cells: longitudinal uterine muscle strips of pregnant SD rats (day 21)
T1 sequence (P10608 whole entry): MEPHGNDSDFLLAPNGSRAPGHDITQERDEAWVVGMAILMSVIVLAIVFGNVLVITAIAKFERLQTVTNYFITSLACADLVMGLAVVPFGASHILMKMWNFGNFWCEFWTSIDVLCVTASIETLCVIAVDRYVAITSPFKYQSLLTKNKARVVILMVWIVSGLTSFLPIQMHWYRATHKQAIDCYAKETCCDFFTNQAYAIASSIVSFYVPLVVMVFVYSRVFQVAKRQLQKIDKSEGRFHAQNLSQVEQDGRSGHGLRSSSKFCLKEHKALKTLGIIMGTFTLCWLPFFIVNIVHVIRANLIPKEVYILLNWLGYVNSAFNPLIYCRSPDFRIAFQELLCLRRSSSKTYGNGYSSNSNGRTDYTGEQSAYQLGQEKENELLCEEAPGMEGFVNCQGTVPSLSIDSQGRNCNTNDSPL
Description: Thus, the compounds of the present invention have markedly potent β2 -adrenergic receptor stimulating effect and therefore are remarkably useful as β2 -adrenergic receptor stimulating agents.
Action of Drugs on the Spontaneous Contractions of Isolated Pregnant Rat Myometrium
The uteri of pregnant SD rats (pregnancy day 21) were isolated and longitudinal uterine muscle strips (about 15 mm in length and about 5 mm in width) free from the basal plate were prepared. The experiment was conducted according to the Magnus method. The sample with a tension of 1 g was exposed to Locke-Ringer solution maintained at 37° C. and gassed with a mixture of 95% of oxygen and 5% of carbon dioxide. The spontaneous contractions of the myometrium were induced isometrically via a pressure transducer and recorded on a rectigram. The drug efficacy was evaluated as 50% inhibitory drug concentration (i.e., EC50 value) by comparing the total degree of uterine contraction during 5 minutes before the addition of the drug with the total degree of uterine contraction during 5 minutes after the addition of the drug.

female ICR mice = assay: Acute toxicity test; format: in vivo; settings: intravenous, 30 mg/kg in saline
Description: To 3 female ICR mice of 4 weeks age was administered intravenously ethyl 2-[(2S)-2-[[(2RS)-2-hydroxy-2-(4-hydroxy-3-hydroxymethylphenyl)ethyl]amino]-1,2,3,4-tetrahydronaphthalen-7-yloxy]acetate dissolved in saline at dose of 30 mg/kg.

CCOC(=O)COc1ccc2c(c1)C[C@@H](NCC(O)c1ccc(O)c(CO)c1)CC2 (mixture of isomers) [Compound 4, Ethyl 2-[(2S)-2-[[(2RS)-2-hydroxy-2-(4-hydroxy-3-hydroxymethylphenyl)ethyl]amino]-1,2,3,4-tetrahydronaphthalen-7-yloxy]acetate]
EC20 value (concentration that increases 20 beats per minute of rat heart rate) (β1 -adrenergic receptor): 1.1×10^-6 mol concentration | EC50 (β2 -adrenergic receptor): 1.1 nM | death of animals during 24 hours after the administration (female ICR mice): No death of animals was observed
